24 compounds from patent US8445510B2, “Fused bicyclic kinase inhibitors” (OSI Pharmaceuticals, LLC, priority 2011, dated 2013) can be followed below.

One assay deals with T1, Aurora B (Homo sapiens, UniProt Q96GD4).
T1 construct: HT-29 cells grown in complete growth media
Nature of the assay: Aurora B cell mechanistic assay (HT-29), phospho-Histone H3 (Ser10) ELISA. The class given is cell-based. The settings on record: HT-29 cell line; inhibition of phospho-Histone H3 (Ser10); at least duplicate experiments (italicized if single experiment); read-out: Aurora B mech IC50. The essentials: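 HT-29 cells treated 1 h at 37 °C with serially diluted compound, then 100 nM Calyculin A added for 30 min. Lysates assayed by phospho-Histone H3 (Ser10) ELISA at 450 nm; normalized to DMSO (100%) and a reference Aurora B inhibitor (full inhibition); IC50 by four-parameter fit.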

The subject of a further assay is Karpas-299 cells. The experiment in a line: Karpas-299 cell proliferation assay (CellTiter-Glo). The class given is cell-based. The settings on record: Homo sapiens, 72 h; Karpas-299 cell line (NPM-ALK); 3 days incubation; at least duplicate experiments; read-out: Prolif. IC50.

A word on the IC50: it is the concentration at which inhibition is half-maximal.

T1 sequence (Q96GD4 whole entry): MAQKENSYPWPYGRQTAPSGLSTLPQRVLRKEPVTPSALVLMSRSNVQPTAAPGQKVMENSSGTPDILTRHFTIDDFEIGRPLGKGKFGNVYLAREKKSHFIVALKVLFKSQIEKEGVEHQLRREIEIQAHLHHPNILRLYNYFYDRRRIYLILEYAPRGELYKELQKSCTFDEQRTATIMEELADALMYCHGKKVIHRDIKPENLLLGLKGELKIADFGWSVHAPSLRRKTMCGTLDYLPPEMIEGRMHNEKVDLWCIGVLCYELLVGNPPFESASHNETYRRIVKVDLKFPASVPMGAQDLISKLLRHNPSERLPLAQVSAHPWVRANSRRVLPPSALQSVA

`COc1ccc(F)c(Cl)c1[C@@H](C)c1c[nH]c2ncc(-c3c(CO)nn(C)c3C)cc12` [Example 51, (4-{3-[(1S)-1-(2-Chloro-3-fluoro-6-methoxyphenyl)ethyl]-1H-pyrrolo[2,3-b]pyridin-5-yl}-1,5-dimethyl-1H-pyrazol-3-yl)methanol]: the IC50 on Aurora B is above 1000 nM; with Karpas-299 cells it was 50 to 200 nM.

Consider `COc1ccc(F)c(Cl)c1[C@@H](C)c1c[nH]c2ncc(-c3cnn([C@H]4CC[C@@H](O)CC4)c3C)cc12` [Example 52, cis-4-(4-{3-[(1S)-1-(2-Chloro-3-fluoro-6-methoxyphenyl)ethyl]-1H-pyrrolo[2,3-b]pyridin-5-yl}-5-methyl-1H-pyrazol-1-yl)cyclohexanol], for which the IC50 was above 1000 nM at Aurora B and 50 to 200 nM in the assay on Karpas-299 cells.

As to `COc1ccc(F)c(Cl)c1[C@@H](C)c1c[nH]c2ncc(-c3cnn([C@H]4CC[C@H](N(C)C)CC4)c3C)cc12` [Example 53, trans-4-(4-{3-[(1S)-1-(2-Chloro-3-fluoro-6-methoxyphenyl)ethyl]-1H-pyrrolo[2,3-b]pyridin-5-yl}-5-methyl-1H-pyrazol-1-yl)-N,N-dimethylcyclohexanamine], the figures for the IC50 on Aurora B and with Karpas-299 cells were 50 to 200 nM and at most 50 nM, respectively.

For `COc1ccc(F)c(Cl)c1[C@@H](C)c1c[nH]c2ncc(-c3cnn([C@H]4CC[C@@H](N(C)C)CC4)c3C)cc12` [Example 54, cis-4-(4-{3-[(1S)-1-(2-Chloro-3-fluoro-6-methoxyphenyl)ethyl]-1H-pyrrolo[2,3-b]pyridin-5-yl}-5-methyl-1H-pyrazol-1-yl)-N,N-dimethylcyclohexanamine], the IC50 on Aurora B is 200 to 1000 nM; in the assay on Karpas-299 cells it was at most 50 nM.

For `COc1ccc(F)c(Cl)c1[C@@H](C)c1c[nH]c2ncc(-c3cn(C)nc3Cl)cc12` [Example 60, 3-[(1S)-1-(2-chloro-3-fluoro-6-methoxyphenyl)ethyl]-5-(3-chloro-1-methyl-1H-pyrazol-4-yl)-1H-pyrrolo[2,3-b]pyridine], the IC50 at Aurora B lay in the range of 200 to 1000 nM; with Karpas-299 cells, 50 to 200 nM.

Consider `COc1ccc(F)c(Cl)c1[C@@H](C)c1c[nH]c2ncc(-c3cn(C)nc3OC)cc12` [Example 61, 3-[(1S)-1-(2-Chloro-3-fluoro-6-methoxyphenyl)ethyl]-5-(3-methoxy-1-methyl-1H-pyrazol-4-yl)-1H-pyrrolo[2,3-b]pyridine], for which the IC50 is above 1000 nM on Aurora B and 200 to 1000 nM in the assay with Karpas-299 cells.

Regarding `COc1ccc(F)c(Cl)c1[C@@H](C)c1c[nH]c2ncc(-c3cnn(C)c3OC)cc12` [Example 62, 3-[(1S)-1-(2-chloro-3-fluoro-6-methoxyphenyl)ethyl]-5-(5-methoxy-1-methyl-1H-pyrazol-4-yl)-1H-pyrrolo[2,3-b]pyridine], the IC50 at Aurora B was above 1000 nM; in the assay on Karpas-299 cells it was 200 to 1000 nM.

Turning to `COc1ccc(F)c(Cl)c1[C@@H](C)c1c[nH]c2ncc(-c3c(C)nn(C)c3Cl)cc12` [Example 63, 5-(5-Chloro-1,3-dimethyl-1H-pyrazol-4-yl)-3-[(1S)-1-(2-chloro-3-fluoro-6-methoxyphenyl)ethyl]-1H-pyrrolo[2,3-b]pyridine], the IC50 is above 1000 nM at Aurora B and 200 to 1000 nM with Karpas-299 cells.

Take `COc1ccc(F)c(Cl)c1[C@@H](C)c1c[nH]c2ncc(-c3cncn3C)cc12` [Example 64, 3-[(1S)-1-(2-Chloro-3-fluoro-6-methoxyphenyl)ethyl]-5-(1-methyl-1H-imidazol-5-yl)-1H-pyrrolo[2,3-b]pyridine]: the IC50 is above 1000 nM on Aurora B and 200 to 1000 nM with Karpas-299 cells.

`COc1ccc(F)c(Cl)c1[C@@H](C)c1c[nH]c2ncc(-c3cnc(C)n3C)cc12` [Example 65, 3-[(1S)-1-(2-chloro-3-fluoro-6-methoxyphenyl)ethyl]-5-(1,2-dimethyl-1H-imidazol-5-yl)-1H-pyrrolo[2,3-b]pyridine]: the values for the IC50 at Aurora B and with Karpas-299 cells were above 1000 nM and 200 to 1000 nM, respectively.

Take `Cc1nn(C[C@@H](O)CO)c(C)c1-c1cnc2[nH]cc([C@H](C)c3c(Cl)ccc(F)c3Cl)c2c1` [Example 66, (2R)-3-(4-{3-[(1S)-1-(2,6-Dichloro-3-fluorophenyl)ethyl]-1H-pyrrolo[2,3-b]pyridin-5-yl}-3,5-dimethyl-1H-pyrazol-1-yl)propane-1,2-diol]: the IC50 on Aurora B was above 1000 nM; in the assay on Karpas-299 cells, at most 50 nM.

Consider `Cc1c(-c2cnc3[nH]cc([C@H](C)c4c(Cl)ccc(F)c4Cl)c3c2)cnn1[C@H]1CC[C@H](O)CC1` [Example 67, trans-4-(4-{3-[(1S)-1-(2,6-Dichloro-3-fluorophenyl)ethyl]-1H-pyrrolo[2,3-b]pyridin-5-yl}-5-methyl-1H-pyrazol-1-yl)cyclohexanol], for which the IC50 was above 1000 nM on Aurora B and 50 to 200 nM with Karpas-299 cells.

For the compound `Cc1nn(C[C@@H](O)CO)c(C)c1-c1cnc2[nH]cc([C@H](C)c3c(OC(F)F)ccc(F)c3Cl)c2c1` [Example 69, (2R)-3-[4-(3-{(1S)-1-[2-Chloro-6-(difluoromethoxy)-3-fluorophenyl]ethyl}-1H-pyrrolo[2,3-b]pyridin-5-yl)-3,5-dimethyl-1H-pyrazol-1-yl]propane-1,2-diol], the IC50 at Aurora B was above 1000 nM; with Karpas-299 cells it was at most 50 nM.

For the compound `Cc1c(-c2cnc3[nH]cc([C@H](C)c4c(OC(F)F)ccc(F)c4Cl)c3c2)cnn1C[C@H](O)CO` [Example 70, (2S)-3-[4-(3-{(1S)-1-[2-Chloro-6-(difluoromethoxy)-3-fluorophenyl]ethyl}-1H-pyrrolo[2,3-b]pyridin-5-yl)-5-methyl-1H-pyrazol-1-yl]propane-1,2-diol], the IC50 on Aurora B was 200 to 1000 nM; in the assay on Karpas-299 cells, at most 50 nM.

Take `Cc1nn(C[C@H](O)CO)cc1-c1cnc2[nH]cc([C@H](C)c3c(OC(F)F)ccc(F)c3Cl)c2c1` [Example 71, (2S)-3-[4-(3-{(1S)-1-[2-Chloro-6-(difluoromethoxy)-3-fluorophenyl]ethyl}-1H-pyrrolo[2,3-b]pyridin-5-yl)-3-methyl-1H-pyrazol-1-yl]propane-1,2-diol]: the IC50 on Aurora B was 50 to 200 nM; with Karpas-299 cells, at most 50 nM.

Take `CCc1c(-c2cnc3[nH]cc([C@H](C)c4c(OC(F)F)ccc(F)c4Cl)c3c2)cnn1CC(C)(C)O` [Example 72, 1-[4-(3-{(1S)-1-[2-Chloro-6-(difluoromethoxy)-3-fluorophenyl]ethyl}-1H-pyrrolo[2,3-b]pyridin-5-yl)-5-ethyl-1H-pyrazol-1-yl]-2-methylpropan-2-ol]: the IC50 was in the range of 200 to 1000 nM on Aurora B and 50 to 200 nM in the assay on Karpas-299 cells.

Turning to `CCc1nn(CC(C)(C)O)cc1-c1cnc2[nH]cc([C@H](C)c3c(OC(F)F)ccc(F)c3Cl)c2c1` [Example 73, 1-[4-(3-{(1S)-1-[2-Chloro-6-(difluoromethoxy)-3-fluorophenyl]ethyl}-1H-pyrrolo[2,3-b]pyridin-5-yl)-3-ethyl-1H-pyrazol-1-yl]-2-methylpropan-2-ol], the IC50 on Aurora B is above 1000 nM; in the assay on Karpas-299 cells, 50 to 200 nM.

As to `Cc1c(-c2cnc3[nH]cc([C@H](C)c4c(OC(F)F)ccc(F)c4Cl)c3c2)cnn1[C@H]1CC[C@H](O)CC1` [Example 74, trans-4-[4-(3-{(1S)-1-[2-Chloro-6-(difluoromethoxy)-3-fluorophenyl]ethyl}-1H-pyrrolo[2,3-b]pyridin-5-yl)-5-methyl-1H-pyrazol-1-yl]cyclohexanol], the figures for the IC50 at Aurora B and in the assay on Karpas-299 cells were 200 to 1000 nM and at most 50 nM, respectively.

Take `Cc1c(-c2cnc3[nH]cc([C@H](C)c4c(OC(F)F)ccc(F)c4Cl)c3c2)cnn1[C@@H]1C[C@@H](O)[C@@H](O)C1` [Example 75, (1R,2S,4S)-4-[4-(3-{(1S)-1-[2-Chloro-6-(difluoromethoxy)-3-fluoro-phenyl]ethyl}-1H-pyrrolo[2,3-b]pyridin-5-yl)-5-methyl-1H-pyrazol-1-yl]cyclopentane-1,2-diol]: the figures for the IC50 on Aurora B and in the assay on Karpas-299 cells were 200 to 1000 nM and at most 50 nM, respectively.

Turning to `Cc1c(-c2cnc3[nH]cc([C@H](C)c4c(OC(F)F)ccc(F)c4Cl)c3c2)cnn1[C@H]1CC[C@H](C(N)=O)CC1` [Example 76, trans-4-[4-(3-{(1S)-1-[2-Chloro-6-(difluoromethoxy)-3-fluorophenyl]ethyl}-1H-pyrrolo[2,3-b]pyridin-5-yl)-5-methyl-1H-pyrazol-1-yl]cyclohexanecarboxamide], the IC50 at Aurora B was 200 to 1000 nM; in the assay on Karpas-299 cells, at most 50 nM.

In the case of `CCc1nn([C@H]2CC[C@H](O)CC2)cc1-c1cnc2[nH]cc([C@H](C)c3c(OC(F)F)ccc(F)c3Cl)c2c1` [Example 77, trans-4-[4-(3-{(1S)-1-[2-Chloro-6-(difluoromethoxy)-3-fluorophenyl]ethyl}-1H-pyrrolo[2,3-b]pyridin-5-yl)-3-ethyl-1H-pyrazol-1-yl]cyclohexanol], the IC50 was in the range of 200 to 1000 nM at Aurora B and 50 to 200 nM with Karpas-299 cells.

`CCc1c(-c2cnc3[nH]cc([C@H](C)c4c(OC(F)F)ccc(F)c4Cl)c3c2)cnn1[C@H]1CC[C@H](O)CC1` [Example 78, trans-4-[4-(3-{(1S)-1-[2-Chloro-6-(difluoromethoxy)-3-fluorophenyl]ethyl}-1H-pyrrolo[2,3-b]pyridin-5-yl)-5-ethyl-1H-pyrazol-1-yl]cyclohexanol]: the IC50 on Aurora B was above 1000 nM; with Karpas-299 cells it was at most 50 nM.

As to `Cc1c(-c2cnc3[nH]cc([C@H](C)c4c(OC(F)F)ccc(F)c4Cl)c3c2)cnn1[C@H]1C[C@@](C)(O)C1` [Example 79, cis-3-[4-(3-{(1S)-1-[2-Chloro-6-(difluoromethoxy)-3-fluorophenyl]ethyl}-1H-pyrrolo[2,3-b]pyridin-5-yl)-5-methyl-1H-pyrazol-1-yl]-1-methylcyclobutanol], the IC50 at Aurora B is above 1000 nM; in the assay with Karpas-299 cells it was 50 to 200 nM.

As for `Cc1c(-c2cnc3[nH]cc([C@H](C)c4c(OC(F)F)ccc(F)c4Cl)c3c2)cnn1[C@H]1C[C@@H](O)C1` [Example 81, cis-3-[4-(3-{(1S)-1-[2-Chloro-6-(difluoromethoxy)-3-fluorophenyl]ethyl}-1H-pyrrolo[2,3-b]pyridin-5-yl)-5-methyl-1H-pyrazol-1-yl]cyclobutanol], the values for the IC50 on Aurora B and in the assay on Karpas-299 cells were above 1000 nM and at most 50 nM, respectively.
